Here are results for two substances from patent publication US12246004B2, “Therapeutic treatment of microsatellite unstable cancers” (THE BROAD INSTITUTE, INC., priority 2018, dated 2025).

One series has as its system WRN. Kind of series: Immunoblot of WRN levels after sgRNA transduction. Type of series: cell-based. The following applies: KM12 cells expressing WRN cDNA (FIG. 2B). How it is done:
For immunoblotting, cells were lysed in RIPA buffer (Sigma-Aldrich) supplemented with complete Protease Inhibitor Cocktail (Roche, 11697498001) and a Halt Phosphatase Inhibitor Cocktail (Thermo Fischer Scientific, 78428). For etoposide and hydroxyurea treatment (FIG. 4A), cells were treated with 10 μM etoposide and 1 mM hydroxyurea, respectively, 6 h before collection. Lysates were fractionated in 4-12% Bis-Tris gels (Invitrogen), which was then transferred to PVDF membranes (Immobilon-FL PVDF Millipore, IPFL00010) and blocked for an hour with Odyssey Blocking Buffer (PBS) (LI-COR Biosciences, 927-40000). Types of primary antibodies and the dilutions used for immunoblotting were as follows: anti-phospho-CHK2 (T68) (R&D Systems, AF1626, 1:400); anti-total CHK2 (Cell Signaling Technology, 3440, 1:1,000); anti-[…] (Cell Signaling Technology, 9718, 1:1,000); anti-GAPDH (Cell Signaling Technology, 5174, 1:1,000); anti-MLH1 (Cell Signaling Technology, 3515, 1:1,000); anti-MSH3 (BD Biosciences, 611390, 1:400); anti-WRN (Novus Biologicals, nb100-472, 1:1,000). The following secondary antibodies were used: goat anti-rabbit IRDye 800CW (LI-COR, 926-32211, 1:5,000), goat anti-rabbit IRDye 680LT (LI-COR, 926-68021), and goat anti-mouse IRDye 800CW (LI-COR, 926-32210). […]
(In general: A western blot detects proteins with antibodies after separation by electrophoresis.)

Another series relates to KM12 cells. Kind of series: Luciferase competitive growth assay, rescue by ectopic WRN cDNA. Type of series: cell-based. As to the method: The catalytically active version, exonuclease-dead (E84A), helicase-dead (K577M) and dually exonuclease and helicase-dead (E84A/K577M) versions of WRN cDNA were a gift from R. J. Monnat (Addgene, plasmids 46038, 46036, 46035 and 46037, respectively). […] The WRN sequence was cloned into a modified lentiviral expression vector, pLX_TRC209, under an EF1A promoter and modified to contain a neomycin-selectable marker. Sanger sequencing of the vectors and genomic DNA after integration were performed to confirm sequence identity. Lentivirus was produced as described below and transduced into dually Cas9-Firefly-luciferase-expressing KM12 cells to create stable ectopic WRN cDNA-expressing cell lines.
Dual Cas9-Firefly-luciferase- and Renilla-luciferase-expressing cells were generated by transduction of Firefly-luciferase cDNA and Renilla-luciferase cDNA, respectively, in a pLX_TRC313 lentiviral expression vector containing a hygromycin-resistance gene. After hygromycin selection, these two versions of the cell line were co-seeded in a 96 well plate at the following densities per well for each version: ES2 2×10^3 cells per well, OVK18, 3×10^3 cells per well; SW620, 4×10^3 cells per well; KM12, 4×10^3 cells per well. The following day, cells were transduced with lentivirus expressing the indicated sgRNA and a puromycin-resistance gene in six replicates. The day following viral transduction, the medium was changed to include puromycin. Cells were split and assayed with the Dual-Glo Luciferase Assay System (Promega) per the manufacturer's recommendations every 3-4 days. Luminescence was determined using the Perkin Elmer EnVision 2105. Values are presented as the ratio of Firefly to Renilla-luciferase luminescence signal per condition and normalized to the mean of the corresponding negative control sgRNAs for each cell line. Experiments in FIG. 2C and FIG. 7B were performed three times. Two-tailed Student's t-tests were performed when comparing single sgRNAs (FIG. 2C). Two-way ANOVAs were performed when multiple WRN sgRNAs were compared to negative controls (FIG. 7B).

Another series relates to MSI cells. Kind of series: Telomere PNA-FISH of metaphase spreads. Type of series: cell-based. The note with it: two MSI cell lines; 96 h after induction of shRNA. As to the method: (§1) In brief, 3×10^6 cells were plated in 10-cm dishes in the absence of doxycycline. For cells treated with doxycycline, 0.2 μg ml^−1 of doxycycline was added and refreshed every 48 h. Then, 96 h after adding doxycycline, cells were treated with 10 μg ml^−1 of colcemid for 3 h and then detached with trypsin. Half of the cell pellet was saved for immunoblot analysis. The other half of the cell pellet was treated with a hypotonic solution (60 mM KCl) and fixed with a 3:1 ratio of methanol:acidic acid. Metaphases were spread onto a slide and fixed with 3% formalin. The PNA-FISH probe ((CCCTAA)3 PNA probe (PNA Bio)) was applied to the slides and denatured at 85° C. for 3 min. The slides were washed with washing solution I (70% formamide, 0.1% Tween-20, 0.1% BSA in 10 mM Tris buffer, pH 7.5) twice and three times with washing solution II (150 mM NaCl, 0.1% Tween-20, 0.1% BSA in 50 mM Tris buffer, pH 7.5). Cy5-ATTCGTTGGAAACGGGA (SEQ ID NO: 28) was used to label centromeres. Images were captured with a Nikon Eclipse 80i microscope and processed with the NISElements BR software. In total, 30 to 60 metaphases were analyzed for cells of the indicated conditions. Two-tailed Student's 1-tests were performed (FIG. 4E). These experiments were performed twice.

Another series has as its system MSS cells. As to the kind of experiment: Telomere PNA-FISH of metaphase spreads. The following applies: two MSS cell lines; 96 h after induction of shRNA. Type of series: cell-based. How it is done: as §1
A further series deals with KM12 xenografts. As to the kind of experiment: KM12 xenograft growth with doxycycline-inducible shRNA. The following applies: doxycycline induction of shRNA (FIG. 2D). Type of series: in vivo, mice. How it is done: Studies were approved by the Institutional Animal Care and Use Committee (IACUC) of the Broad Institute under animal protocol 0194-01-18. IACUC guidelines on the ethical use and care of animals were followed. For growth curves, 10^6 KM12 cells expressing WRN shRNA 1 or WRN-C911 shRNA 1 were inoculated subcutaneously into right hind flank of approximately 8-week-old female SCID Hairless Outbred (SHO) mice obtained from Charles River Laboratories. Tumors were measured twice weekly with calipers and the tumor volumes were calculated using the formula π/6×(width^2×length). When primary tumors reached around 100 mm^3, the mice were randomized onto Control Teklad Global 18% Protein Rodent Diet or Teklad Global 18% Protein Rodent Diet containing 625 mg kg^−1 doxycycline hyclate. Mice remained on their respective diets throughout the remainder of the study. Animal body weights were recorded twice weekly during the course of the study for body condition scoring. For the growth curves, n=5 (4 from days 15-18), 5, 4, 4 for WRN shRNA 1 without doxycycline, WRN shRNA 1 with doxycycline, WRN-C911 shRNA 1 without doxycycline, WRN-C911 shRNA 1 with doxycycline treatment, respectively. One mouse treated with KM12 cells with WRN shRNA 1 without doxycycline was euthanized before day 15 because of tumor ulceration. No experiments exceeded the maximal tumor volumes of 2,000 mm^3 set forth by the IACUC. […]

In the case of “WRN EIJ sgRNA: sgRNA targeting a WRN exon-intron junction, target sequence AGCACGTACATAAGCATCAG (SEQ ID NO: 4) (only the sgRNA target sequence is given, scaffold and chemistry not given here, further chemistry not given here)”, the “Silencing of endogenous versus exogenous WRN (immunoblot)” value in the series on WRN is “silencing endogenous WRN, but not exogenous WRN cDNA”. Further, in the series with KM12 cells (Cas9-expressing KM12 cells, 9 days after sgRNA transduction (FIG. 2C)), the “Rescue of viability by WRN cDNA” value is “rescued”. In addition, in the series on KM12 cells (KM12 cells (FIGS. 2B and 2C)), the “Rescue of viability by exonuclease-dead (E84A) WRN cDNA” value is given as “did not attenuate rescue” and the “Rescue of viability by helicase-dead (K577M) WRN cDNA” value is recorded as “prevented rescue”.
Regarding “WRN shRNA 1: shRNA targeting WRN chosen from project DRIVE, CAGCACTGCCAATGGTTCCAA; SEQ ID NO: 5”, the “Chromosomal integrity (DSBs, fragmentation) in metaphase spreads” value in the series with MSI cells was “induced DSBs and fragmentation throughout chromosomes”; with MSS cells, “but not in MSS cells”. Moreover, in the series on KM12 xenografts, the Tumor growth result is on record as “significantly impaired tumor growth”.
